One assay has as its target T1, KRAS-G12D (Homo sapiens, UniProt P01116, G12D).
T1 construct: endogenous in cells; host or cells: A-427 (ATCC), AGS, AsPc-1, Panc 04.03
In words: KRAS-G12D degradation assay (Western Blot), A-427 cells. Particulars: A427 cells, 24 h; for Dmax: A-427. Format: cell-based. A digest of the protocol:
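Western blotting of lysates (5 μg protein) quantified KRAS against a β-actin reference after 24 h exposure to compound at final 0.03–3000 nM in 0.25% DMSO. Cells were A-427, AGS, AsPc-1 or Panc 04.03, all KRAS G12D, at 5×10^5/well. Degradation versus control yielded DC50 and Dmax.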

The subject of the next assay is phosphorylated ERK. In words: KRAS G12D-mediated phosphorylated ERK inhibition assay (AlphaLISA), A427. It is filed as cell-based. Particulars: Homo sapiens, A-427; A427 cells; class symbols; read-out: pERK (A427) IC50. On the procedure: The relative amounts of phosphorylated ERK and total ERK in the samples were separately determined according to the test methods provided in the instructions of the AlphaLISA SureFire Ultra p-ERK 1/2 (Thr202/Tyr204) kit (PerkinElmer) and the AlphaLISA SureFire Ultra TotalERK 1/2 kit (PerkinElmer).
The experimental procedures for the assay of the phosphorylated ERK and total ERK were as follows: 10 μL of each sample was added to a 384-well plate (Greiner), and 5 μL of the prepared Acceptor Beads (PerkinElmer) mixed solution (containing 50× Acceptor Beads 615, Activation Buffer, and equal volumes of Reaction Buffer 1 and Reaction Buffer 2) was added to each well; and the plate was incubated at room temperature for 2 h. Then 5 μL of 1× Donor Beads (PerkinElmer) diluted with Dilution Buffer was added to each well, and the plate was incubated at room temperature overnight. After the incubation was completed, AlphaLISA signal values for the phosphorylated ERK and total ERK were separately measured on an EnVision microplate reader (PerkinElmer) in the AlphaScreen standard mode. The following formula was adopted: phosphorylated ERK correction value=phosphorylated ERK AlphaLISA signal value/total ERK AlphaLISA signal value. The relative ratio of the phosphorylated ERK for each sample was calculated. The percentage inhibition rates of the compounds on the phosphorylated ERK at each concentration were calculated by comparing the relative value of the phosphorylated ERK with that of the DMSO control well. Then non-linear curve fittings for logarithmic concentration-inhibition rate were performed by the GraphPad Prism 8 analysis software, and the IC50 values of the compounds on the inhibition of the phosphorylated ERK were obtained (Table 2).

Some results are limits rather than exact numbers.

T1 sequence (P01116 1-188 isoform P01116-2 G12D): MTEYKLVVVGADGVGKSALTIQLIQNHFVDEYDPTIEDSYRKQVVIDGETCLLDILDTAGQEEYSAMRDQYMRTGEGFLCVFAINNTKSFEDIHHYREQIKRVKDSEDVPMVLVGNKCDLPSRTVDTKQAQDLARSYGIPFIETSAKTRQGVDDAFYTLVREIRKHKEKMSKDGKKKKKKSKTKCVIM

Broadly, the DC50 is the concentration at which degradation of the target reaches its halfway point. By Dmax is commonly meant the largest share of the target that was removed. A high value points to a fuller loss of target. Broadly, the IC50 is the concentration that inhibits the measured activity by half. For the compound `C#Cc1c(F)ccc2cc(O)cc(-c3ncc4c(N5CC6CCC(C5)N6)nc(OCC5(CN6CCN(CC7CCC8(CC7)CCN(C(=O)c7ccc(C)c(N9CCC(=O)NC9=O)c7)CC8)CC6)CC5)nc4c3F)c12` [Example 36, 1-(5-(9-((4-((1-(((4-(3,8-diazabicyclo[3.2.1]octan-3-yl)-7-(8-ethynyl-7-fluoro-3-hydroxynaphthalen-1-yl)-8-fluoropyrido[4,3-d]pyrimidin-2-yl)oxy)methyl)cyclopropyl)methyl)piperazin-1-yl)methyl)-3-azaspiro[5.5]undecane-3-carbonyl)-2-methylphenyl)dihydropyrimidine-2,4(1H,3H)-dione], on KRAS-G12D (class symbols), the DC50 is at most 0.05 µM and the maximal degradation (Dmax) lay in the range of 80 to 100%. Also, in the assay with phosphorylated ERK, the IC50 is at most 0.05 µM.
For `C#Cc1c(F)ccc2cc(O)cc(-c3ncc4c(N5CC6CCC(C5)N6)nc(OCC5(CN6CCN(CCCC7CCN(C(=O)c8ccc(Cl)c(N9CCC(=O)NC9=O)c8)CC7)CC6)CCC5)nc4c3F)c12` [Example 24, 1-(5-(4-(3-(4-((1-(((4-(3,8-diazabicyclo[3.2.1]octan-3-yl)-7-(8-ethynyl-7-fluoro-3-hydroxynaphthalen-1-yl)-8-fluoropyrido[4,3-d]pyrimidin-2-yl)oxy)methyl)cyclobutyl)methyl)piperazin-1-yl)propyl)piperidine-1-carbonyl)-2-chlorophenyl)dihydropyrimidine-2,4(1H,3H)-dione], on KRAS-G12D (class symbols), the DC50 was at most 0.05 µM and the Dmax was in the range of 80 to 100%. In addition, the IC50 in the assay with phosphorylated ERK is at most 0.05 µM.
On KRAS-G12D (class symbols), `C#Cc1c(F)ccc2cc(O)cc(-c3ccc4c(N5CC6CCC(C5)N6)nc(OCC5(CN6CCN(CC7CCC8(CC7)CCN(C(=O)c7ccc(C)c(N9CCC(=O)NC9=O)c7)CC8)CC6)CC5)nc4c3F)c12` [Example 42, 1-(5-(9-((4-((1-(((4-(3,8-diazabicyclo[3.2.1]octan-3-yl)-7-(8-ethynyl-7-fluoro-3-hydroxynaphthalen-1-yl)-8-fluoroquinazolin-2-yl)oxy)methyl)cyclopropyl)methyl)piperazin-1-yl)methyl)-3-azaspiro[5.5]undecane-3-carbonyl)-2-methylphenyl)dihydropyrimidine-2,4(1H,3H)-dione] returned a DC50 of at most 0.05 µM and a Dmax of 80 to 100%.
Consider `C#Cc1c(F)ccc2cc(O)cc(-c3ncc4c(N5CC6CCC(C5)N6)nc(OCC(C)CN5CCN(CC6CCC7(CC6)CCN(C(=O)c6ccc(OC)c(N8CCC(=O)NC8=O)c6)CC7)CC5)nc4c3F)c12` (stereo not drawn) [Example 84, 1-(5-(9-((4-(3-((4-(3,8-diazabicyclo[3.2.1]octan-3-yl)-7-(8-ethynyl-7-fluoro-3-hydroxynaphthalen-1-yl)-8-fluoropyrido[4,3-d]pyrimidin-2-yl)oxy)-2-methylpropyl)piperazin-1-yl)methyl)-3-azaspiro[5.5]undecane-3-carbonyl)-2-methoxyphenyl)dihydropyrimidine-2,4(1H,3H)-dione], for which, at KRAS-G12D (numeric values), the DC50 stood at 0.00467 µM and the Dmax was found to be 86.3%.
On to `C#Cc1cccc2cc(O)cc(-c3ncc4c(N5CC6CCC(C5)N6)nc(OCC5(CN6CCN(CC7CCC8(CC7)CCN(C(=O)c7ccc(Cl)c(N9CCC(=O)NC9=O)c7)CC8)CC6)CC5)nc4c3F)c12` [Example 57, 1-(5-(9-((4-((1-(((4-(3,8-diazabicyclo[3.2.1]octan-3-yl)-7-(8-ethynyl-3-hydroxynaphthalen-1-yl)-8-fluoropyrido[4,3-d]pyrimidin-2-yl)oxy)methyl)cyclopropyl)methyl)piperazin-1-yl)methyl)-3-azaspiro [5.5]undecane-3-carbonyl)-2-chlorophenyl)dihydropyrimidine-2,4(1H,3H)-dione], for which, on KRAS-G12D (class symbols), the DC50 is at most 0.05 µM and the Dmax lay in the range of 80 to 100%.
